The NIST ThermoML archive (doi:10.1016/j.jct.2016.08.010)
Numbers after ± are expanded uncertainties.

Test: molar heat capacity at constant pressure; xn = mol fraction of the nth substance listed
Conditions: 100 kPa, Liquid, Small sample (50 mg) DSC

CCCCn1cc[n+](C)c1C.F[B-](F)(F)F [1-butyl-2,3-dimethylimidazolium tetrafluoroborate] + CCCCn1cc[n+](C)c1.F[B-](F)(F)F
molar heat capacity at constant pressure [J/K/mol]
Conditions | 293.15 K | 298.15 K | 303.15 K | 308.15 K
x1 = 0.0944 | 372.33 ± 8 | 374.56 ± 8 | 376.3 ± 8 | 378.14 ± 8.1
x1 = 0.1139 | 374.5 ± 8 | 376.61 ± 8 | 378.27 ± 8.1 | 379.93 ± 8.1
x1 = 0.1685 | 380.51 ± 8.1 | 382.42 ± 8.2 | 383.87 ± 8.2 | 385.43 ± 8.2
x1 = 0.1964 | 383.54 ± 8.2 | 385.39 ± 8.2 | 386.73 ± 8.3 | 388.21 ± 8.3
x1 = 0.2219 | 386.3 ± 8.2 | 388.04 ± 8.3 | 389.27 ± 8.3 | 390.78 ± 8.3
x1 = 0.2761 | 391.8 ± 8.4 | 393.45 ± 8.4 | 394.59 ± 8.4 | 396.01 ± 8.5
x1 = 0.325 | 396.42 ± 8.5 | 397.97 ± 8.5 | 399.09 ± 8.5 | 400.41 ± 8.6
x1 = 0.3616 | 399.58 ± 8.5 | 401.14 ± 8.6 | 402.27 ± 8.6 | 403.61 ± 8.6
x1 = 0.4192 | 404.04 ± 8.6 | 405.54 ± 8.7 | 406.68 ± 8.7 | 408.07 ± 8.7
x1 = 0.4769 | 407.66 ± 8.7 | 409.23 ± 8.7 | 410.42 ± 8.8 | 411.83 ± 8.8
x1 = 0.5228 | 410.01 ± 8.8 | 411.58 ± 8.8 | 412.83 ± 8.8 | 414.29 ± 8.8
x1 = 0.5749 | 412.12 ± 8.8 | 413.7 ± 8.8 | 415.09 ± 8.9 | 416.68 ± 8.9
x1 = 0.6325 | 413.66 ± 8.8 | 415.36 ± 8.9 | 416.86 ± 8.9 | 418.94 ± 8.9
x1 = 0.6877 | 414.45 ± 8.8 | 416.32 ± 8.9 | 418.24 ± 8.9 | 420.31 ± 9
x1 = 0.7386 | 414.74 ± 8.9 | 416.82 ± 8.9 | 419.32 ± 8.9 | 421.29 ± 9
x1 = 0.7922 | 414.58 ± 8.8 | 416.97 ± 8.9 | 419.35 ± 8.9 | 421.84 ± 9
x1 = 0.8479 | 414.36 ± 8.8 | 416.75 ± 8.9 | 419.41 ± 9 | 422.19 ± 9
x1 = 0.8832 | 413.81 ± 8.8 | 416.53 ± 8.9 | 419.16 ± 8.9 | 421.93 ± 9
x1 = 1 | 413.03 ± 8.8 | 416.01 ± 8.9 | 418.84 ± 8.9 | 421.7 ± 9

CCCCn1cc[n+](C)c1C.F[B-](F)(F)F [1-butyl-2,3-dimethylimidazolium tetrafluoroborate] + CCn1cc[n+](C)c1.F[B-](F)(F)F
molar heat capacity at constant pressure [J/K/mol]
Conditions | 293.15 K | 298.15 K | 303.15 K | 308.15 K
x1 = 0.1129 | 319.45 ± 6.8 | 321.79 ± 6.9 | 324.44 ± 6.9 | 327.05 ± 7
x1 = 0.1657 | 325.94 ± 7 | 328.52 ± 7 | 331.39 ± 7.1 | 334.26 ± 7.1
x1 = 0.2189 | 331.85 ± 7.1 | 334.58 ± 7.1 | 337.61 ± 7.2 | 340.64 ± 7.3
x1 = 0.2743 | 337.42 ± 7.2 | 340.23 ± 7.3 | 343.39 ± 7.3 | 346.51 ± 7.4
x1 = 0.3272 | 342.26 ± 7.3 | 345.15 ± 7.4 | 348.38 ± 7.4 | 351.58 ± 7.5
x1 = 0.3729 | 346.15 ± 7.4 | 349.09 ± 7.5 | 352.37 ± 7.5 | 355.65 ± 7.6
x1 = 0.4382 | 351.36 ± 7.5 | 354.4 ± 7.6 | 357.74 ± 7.6 | 361.09 ± 7.7
x1 = 0.4917 | 355.44 ± 7.6 | 358.6 ± 7.7 | 362.01 ± 7.7 | 365.39 ± 7.8
x1 = 0.5242 | 357.91 ± 7.6 | 361.14 ± 7.7 | 364.6 ± 7.8 | 368.01 ± 7.9
x1 = 0.5687 | 361.32 ± 7.7 | 364.66 ± 7.8 | 368.19 ± 7.9 | 371.64 ± 7.9
x1 = 0.6042 | 364.11 ± 7.8 | 367.55 ± 7.8 | 371.14 ± 7.9 | 374.62 ± 8
x1 = 0.6468 | 367.63 ± 7.8 | 371.19 ± 7.9 | 374.82 ± 8 | 378.34 ± 8.1
x1 = 0.6931 | 371.7 ± 7.9 | 375.37 ± 8 | 379.1 ± 8.1 | 382.63 ± 8.2
x1 = 0.7244 | 374.62 ± 8 | 378.4 ± 8.1 | 382.14 ± 8.2 | 385.71 ± 8.2
x1 = 0.785 | 380.94 ± 8.1 | 384.83 ± 8.2 | 388.57 ± 8.3 | 392.14 ± 8.4
x1 = 0.8149 | 384.44 ± 8.2 | 388.32 ± 8.3 | 392.05 ± 8.4 | 395.57 ± 8.4
x1 = 0.8633 | 390.63 ± 8.3 | 394.43 ± 8.4 | 398.1 ± 8.5 | 401.56 ± 8.6
x1 = 0.9107 | 397.48 ± 8.5 | 401.14 ± 8.6 | 404.65 ± 8.6 | 407.96 ± 8.7
x1 = 1 | 413.03 ± 8.8 | 416.01 ± 8.9 | 418.84 ± 8.9 | 421.7 ± 9

CCn1cc[n+](C)c1.F[B-](F)(F)F [1-ethyl-3-methylimidazolium tetrafluoroborate] + CCCCn1cc[n+](C)c1.F[B-](F)(F)F
molar heat capacity at constant pressure [J/K/mol]
Conditions | 293.15 K | 298.15 K | 303.15 K | 308.15 K
x2 = 0 | 303.2 ± 6.5 | 304.53 ± 6.5 | 306.29 ± 6.5 | 308.03 ± 6.6
x2 = 0.0731 | 314.45 ± 6.7 | 315.32 ± 6.7 | 316.58 ± 6.8 | 318.02 ± 6.8
x2 = 0.1164 | 321.05 ± 6.9 | 322.12 ± 6.9 | 323.51 ± 6.9 | 324.76 ± 6.9
x2 = 0.1692 | 328.75 ± 7 | 329.72 ± 7 | 330.85 ± 7.1 | 332.16 ± 7.1
x2 = 0.2144 | 335.06 ± 7.2 | 336 ± 7.2 | 337.17 ± 7.2 | 338.49 ± 7.2
x2 = 0.2672 | 341.92 ± 7.3 | 342.87 ± 7.3 | 344.05 ± 7.3 | 345.42 ± 7.4
x2 = 0.3259 | 348.89 ± 7.5 | 349.85 ± 7.5 | 351.13 ± 7.5 | 352.54 ± 7.5
x2 = 0.3827 | 354.65 ± 7.6 | 355.77 ± 7.6 | 357.13 ± 7.6 | 358.55 ± 7.7
x2 = 0.4365 | 359.23 ± 7.7 | 360.56 ± 7.7 | 362.07 ± 7.7 | 363.61 ± 7.8
x2 = 0.4722 | 361.72 ± 7.7 | 363.22 ± 7.8 | 364.73 ± 7.8 | 366.24 ± 7.8
x2 = 0.535 | 365.27 ± 7.8 | 367.01 ± 7.8 | 368.62 ± 7.9 | 370.2 ± 7.9
x2 = 0.5968 | 367.7 ± 7.8 | 369.31 ± 7.9 | 370.93 ± 7.9 | 372.58 ± 8
x2 = 0.6379 | 368.54 ± 7.9 | 370.31 ± 7.9 | 371.89 ± 7.9 | 373.53 ± 8
x2 = 0.6857 | 369.02 ± 7.9 | 370.78 ± 7.9 | 372.53 ± 8 | 374.23 ± 8
x2 = 0.7446 | 369.21 ± 7.9 | 371.07 ± 7.9 | 372.68 ± 8 | 374.41 ± 8
x2 = 0.7732 | 368.94 ± 7.9 | 370.9 ± 7.9 | 372.67 ± 8 | 374.4 ± 8
x2 = 0.8293 | 368.08 ± 7.9 | 370.08 ± 7.9 | 371.76 ± 7.9 | 373.59 ± 8
x2 = 0.876 | 367.14 ± 7.8 | 369.26 ± 7.9 | 371.02 ± 7.9 | 372.8 ± 8
x2 = 0.9253 | 365.44 ± 7.8 | 367.47 ± 7.8 | 369.72 ± 7.9 | 371.83 ± 7.9
